Reference: patent publication US20260250250A1, “3-(SULPHONYL OR SULFONIMIDOYL)PROP-2-EN-1-YL]-2-OXO-1,2-DIHYDROPYRIDINE-3-CARBOXAMIDE DERIVATIVES” (Flinder Therapeutics B.V., priority 2022, published 2026)
Counter-ions that a name gives are not always drawn.

Tests used:
[1] = biological target: T1, human E3 ubiquitin-protein ligase RNF31 (HOIP) (Homo sapiens, UniProt Q96EP0); assay: Cell-free HTRF-based HOIP inhibition assay; type: biochemical
T1 sequence (Q96EP0 695-1072 limits assumed): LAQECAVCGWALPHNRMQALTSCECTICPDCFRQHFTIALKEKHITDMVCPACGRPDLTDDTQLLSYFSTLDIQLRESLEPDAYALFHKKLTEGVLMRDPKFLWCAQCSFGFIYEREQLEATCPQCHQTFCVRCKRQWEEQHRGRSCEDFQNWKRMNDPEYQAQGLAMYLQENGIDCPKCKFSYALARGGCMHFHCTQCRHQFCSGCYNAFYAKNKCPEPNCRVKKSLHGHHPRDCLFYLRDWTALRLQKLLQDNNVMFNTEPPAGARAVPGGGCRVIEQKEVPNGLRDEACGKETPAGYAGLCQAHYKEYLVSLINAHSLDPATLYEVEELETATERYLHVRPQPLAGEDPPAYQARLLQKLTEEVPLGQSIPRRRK
How it was run: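 Recombinant human HOIP fragment (E. coli) preincubated with compounds (100-0.005 μM, 1% DMSO) and E1 for 1 h at 25° C. E2 and substrates then added; reaction 2.5 h at 25° C. HTRF read-out, excitation 337 nm, emissions 665/620 nm.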

NF-κB signaling pathway = assay: Cell-based dual luciferase NF-κB reporter assay (HEK293 cells, TNF stimulated); settings: Homo sapiens, HEK293
How it was run: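 HEK293 cells transfected with Firefly luciferase and NF-κB-response-element NanoLuc plasmids; compounds at 100–0.005 µM in 1% DMSO. Cells stimulated with 2.5 ng/mL TNF 30 min after compound addition. Firefly and NanoLuc activities read after 6 h by Nano-Glo dual-luciferase detection.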

[2] = test system: bladder carcinoma RT4 cell line; assay: TNF-α-induced cytotoxicity assay (CellTiter-Glo viability); type: cell-based; settings: Homo sapiens, RT-4, 72 h
How it was run: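 RT4 bladder carcinoma cells, 1000 per well, stimulated with 1.25 ng/mL TNFα together with compound for 72 h at 37° C., 5% CO2. Viability read by CellTiter-Glo luminescence, proportional to cellular ATP, as a measure of HOIP-dependent cytotoxicity.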

| SMILES | IC50 [1] [nM] | IC50 (NF-κB signaling pathway) [nM] | IC50 [2] [nM] |
| --- | --- | --- | --- |
| COc1ccc(S(=N)(=O)/C=C/CNC(=O)c2cc3c([nH]c2=O)CCN(C(=O)OCCF)C3)cc1F (stereo not drawn) [Example 180, 2-fluoroethyl 3-{[(2E)-3-[(3-fluoro-4-methoxyphenyl)(imino)oxo-λ^6-sulfanyl]prop-2-en-1-yl]carbamoyl}-2-oxo-1,2,5,6,7,8-hexahydro-1,6-naphthyridine-6-carboxylate] | ≤ 100 | ≤ 10000 | ≤ 10000 |
| N=S(=O)(/C=C/CNC(=O)c1cc2c([nH]c1=O)CCCC2)c1ccccc1F (stereo not drawn) [Example 132, N-[(2E)-3-[(2-fluorophenyl)(imino)oxo-λ^6-sulfanyl]prop-2-en-1-yl]-2-oxo-1,2,5,6,7,8-hexahydroquinoline-3-carboxamide] | ≤ 1000 | ≤ 1000 | ≤ 10000 |
| COc1ccc(S(=N)(=O)/C=C/CNC(=O)c2cc3c([nH]c2=O)CCOC3)cc1F (stereo not drawn) [Example 145, N-[(2E)-3-[(3-fluoro-4-methoxyphenyl)(imino)oxo-λ^6-sulfanyl]prop-2-en-1-yl]-2-oxo-1H,2H,5H,7H,8H-pyrano[4,3-b]pyridine-3-carboxamide] | ≤ 1000 | ≤ 100000 | ≤ 10000 |
| N=S(=O)(/C=C/CNC(=O)c1cc2c([nH]c1=O)CCCC2)c1ccc(Cl)cc1 (stereo not drawn) [Example 131, N-[(2E)-3-[(4-chlorophenyl)(imino)oxo-λ^6-sulfanyl]prop-2-en-1-yl]-2-oxo-1,2,5,6,7,8-hexahydroquinoline-3-carboxamide] | ≤ 100 | ≤ 1000 | ≤ 1000 |
| N=S(=O)(/C=C/CNC(=O)c1cc2c([nH]c1=O)CCCC2)c1ccc(OC(F)(F)F)cc1 (stereo not drawn) [Example 65, N-[(2E)-3-[imino(oxo)[4-(trifluoromethoxy)phenyl]-%^6-sulfanyl]prop-2-en-1-yl]-2-oxo-1,2,5,6,7,8-hexahydroquinoline-3-carboxamide] | ≤ 1000 | ≤ 1000 | ≤ 1000 |
| O=C(NC/C=C/S(=O)(=O)c1ccccc1)c1cc2c([nH]c1=O)CCN(C(=O)OC1CCC1)C2 [Example 70, cyclobutyl 3-{[(2E)-3-(benzenesulfonyl)prop-2-en-1-yl]carbamoyl}-2-oxo-1,2,5,6,7,8-hexahydro-1,6-naphthyridine-6-carboxylate] | ≤ 100 | ≤ 1000 | ≤ 1000 |
| N=S(=O)(/C=C/CNC(=O)c1cc2c([nH]c1=O)CCC(F)(F)C2)c1ccc(F)cc1 (stereo not drawn) [Example 59, 6,6-difluoro-N-[(2E)-3-[(4-fluorophenyl)(imino)oxo-λ^6-sulfanyl]prop-2-en-1-yl]-2-oxo-1,2,5,6,7,8-hexahydroquinoline-3-carboxamide] | ≤ 1000 | ≤ 10000 | ≤ 1000 |
| Cc1nnc(COC(=O)N2CCc3[nH]c(=O)c(C(=O)NC/C=C/S(=O)(=O)c4ccccc4)cc3C2)o1 [Example 71, (5-methyl-1,3,4-oxadiazol-2-yl)methyl 3-{[(2E)-3-(benzenesulfonyl)prop-2-en-1-yl]carbamoyl}-2-oxo-1,2,5,6,7,8-hexahydro-1,6-naphthyridine-6-carboxylate] | ≤ 1000 | ≤ 100000 | ≤ 100000 |
| N=S(=O)(/C=C/CNC(=O)c1cc2c([nH]c1=O)CCCC2)c1ccccc1 (stereo not drawn) [Example 60, N-[(2E)-3-[imino(oxo)phenyl-λ^6-sulfanyl]prop-2-en-1-yl]-2-oxo-1,2,5,6,7,8-hexahydroquinoline-3-carboxamide] | ≤ 1000 | ≤ 1000 | ≤ 10000 |
| O=C(NC/C=C/S(=O)(=O)c1ccccc1)c1cc2c([nH]c1=O)CCN(C(=O)OCC(F)F)C2 [Example 77, 2,2-Difluoroethyl 3-{[(2E)-3-(benzenesulfonyl)prop-2-en-1-yl]carbamoyl}-2-oxo-1,2,5,6,7,8-hexahydro-1,6-naphthyridine-6-carboxylate] | ≤ 100 | ≤ 1000 | ≤ 10000 |
| O=C(NC/C=C/S(=O)(=O)c1ccccc1)c1cc2c([nH]c1=O)CCNC2 [Example 66, N-[(2E)-3-(benzenesulfonyl)prop-2-en-1-yl]-2-oxo-1,2,5,6,7,8-hexahydro-1,6-naphthyridine-3-carboxamide hydrochloride] | ≤ 10000 | ≤ 10000 | ≤ 10000 |
| N=S(=O)(/C=C/CNC(=O)c1cc2c([nH]c1=O)CCN(C(=O)OCC1CC1)C2)c1ccccc1 (stereo not drawn) [Example 179, cyclopropylmethyl 3-{[(2E)-3-[imino(oxo)phenyl-λ^6-sulfanyl]prop-2-en-1-yl]carbamoyl}-2-oxo-1,2,5,6,7,8-hexahydro-1,6-naphthyridine-6-carboxylate] | ≤ 1000 | ≤ 10000 | ≤ 10000 |
| O=C(NC/C=C/S(=O)(=O)c1ccccc1)c1cc2c([nH]c1=O)CCN(C(=O)OCCc1ccco1)C2 [Example 89, 2-(furan-2-yl)ethyl 3-{[(2E)-3-(benzenesulfonyl)prop-2-en-1-yl]carbamoyl}-2-oxo-1,2,5,6,7,8-hexahydro-1,6-naphthyridine-6-carboxylate] | ≤ 1000 | ≤ 10000 | ≤ 1000 |
| CC(C)(C)OC(=O)N1CCc2[nH]c(=O)c(C(=O)NC/C=C/S(=O)(=O)c3ccccc3)cc2C1 [Example 10, tert-butyl 3-{[(2E)-3-(benzenesulfonyl)prop-2-en-1-yl]carbamoyl}-2-oxo-1,2,5,6,7,8-hexahydro-1,6-naphthyridine-6-carboxylate] | ≤ 100 | ≤ 1000 | ≤ 10000 |
| O=C(NC/C=C/S(=O)(=O)c1ccc(Cl)cn1)c1cc2c([nH]c1=O)CCCC2 [Example 11, N-[(2E)-3-[(5-chloropyridin-2-yl)sulfonyl]prop-2-en-1-yl]-2-oxo-1,2,5,6,7,8-hexahydroquinoline-3-carboxamide] | ≤ 100 | ≤ 1000 | ≤ 1000 |
| COc1ccc(S(=N)(=O)/C=C/CNC(=O)c2cc3c([nH]c2=O)CCC(C(F)(F)F)C3)cc1F (stereo not drawn) [Example 147, N-[(2E)-3-[(3-fluoro-4-methoxyphenyl)(imino)oxo-λ^6-sulfanyl]prop-2-en-1-yl]-2-oxo-6-(trifluoromethyl)-1,2,5,6,7,8-hexahydroquinoline-3-carboxamide] | ≤ 1000 | ≤ 10000 | ≤ 10000 |
| O=C(NC/C=C/S(=O)(=O)c1ccc(Cl)cc1)c1cc2c([nH]c1=O)CCN(C(=O)OC1COC1)C2 [Example 87, oxetan-3-vi 3-{[(2E)-3-(4-chlorobenzenesulfonyl)prop-2-en-1-yl]carbamoyl}-2-oxo-1,2,5,6,7,8-hexahydro-1,6-naphthyridine-6-carboxylate] | ≤ 100 | ≤ 10000 | ≤ 100000 |
| CC(C)COC(=O)N1CCc2[nH]c(=O)c(C(=O)NC/C=C/S(=O)(=O)c3ccccc3)cc2C1 [Example 119, 2-methylpropyl 3-{[(2E)-3-(benzenesulfonyl)prop-2-en-1-yl]carbamoyl}-2-oxo-1,2,5,6,7,8-hexahydro-1,6-naphthyridine-6-carboxylate] | ≤ 100 | ≤ 1000 | ≤ 1000 |
| COc1ccc(S(=N)(=O)/C=C/CNC(=O)c2cc3c([nH]c2=O)CCN(C(=O)OCC(F)F)C3)cc1F (stereo not drawn) [Example 178, 2,2-difluoroethyl 3-{[(2E)-3-[(3-fluoro-4-methoxyphenyl)(imino)oxo-λ^6-sulfanyl]prop-2-en-1-yl]carbamoyl}-2-oxo-1,2,5,6,7,8-hexahydro-1,6-naphthyridine-6-carboxylate] | ≤ 100 | ≤ 10000 | ≤ 10000 |
| O=C(NC/C=C/S(=O)(=O)c1ccccc1)c1cc2c([nH]c1=O)CCN(C(=O)OC1CC1)C2 [Example 78, cyclopropyl 3-{[(2E)-3-(benzenesulfonyl)prop-2-en-1-yl]carbamoyl}-2-oxo-1,2,5,6,7,8-hexahydro-1,6-naphthyridine-6-carboxylate] | ≤ 1000 | ≤ 1000 | ≤ 10000 |
| COc1ccc(S(=N)(=O)/C=C/CNC(=O)c2cc3ccccc3[nH]c2=O)cc1F (stereo not drawn) [Example 143, N-[(2E)-3-[(3-fluoro-4-methoxyphenyl)(imino)oxo-λ^6-sulfanyl]prop-2-en-1-yl]-2-oxo-1,2-dihydroquinoline-3-carboxamide] | ≤ 100 | ≤ 1000 | ≤ 1000 |
| O=C(NC/C=C/S(=O)(=O)c1ccc(Cl)cc1)c1cc2c([nH]c1=O)CCN(C(=O)OCC1CC1)C2 [Example 88, cyclopropylmethyl 3-{[(2E)-3-(4-chlorobenzenesulfonyl)prop-2-en-1-yl]carbamoyl}-2-oxo-1,2,5,6,7,8-hexahydro-1,6-naphthyridine-6-carboxylate] | ≤ 100 | ≤ 1000 | ≤ 1000 |
| O=C(NC/C=C/S(=O)(=O)c1ccccc1)c1cc2c([nH]c1=O)CCN(C(=O)C1CCOC1)C2 (stereo not drawn) [Example 113, N-[(2E)-3-(benzenesulfonyl)prop-2-en-1-yl]-2-oxo-6-(oxolane-3-carbonyl)-1,2,5,6,7,8-hexahydro-1,6-naphthyridine-3-carboxamide] | ≤ 1000 | ≤ 100000 | ≤ 100000 |
